Experimental data taken from the supplement of paper PMC13207355.

Key:
Conditions in all cases: exposure time: 72 h
[1] = system: E21 (patient-derived glioblastoma stem cells of mesenchymal subtype); assay: surviving fraction (nuclei count normalised to DMSO); higher = more cells surviving (less toxic)
[2] = system: E28 (patient-derived glioblastoma stem cells of classical subtype); assay: as above
[3] = system: E34 (patient-derived glioblastoma stem cells of proneural subtype); assay: as above
[4] = system: FT3469 (normal neural stem cell line); assay: as above
[5] = system: E13 (patient-derived glioblastoma stem cells of classical subtype); assay: as above
[6] = system: E57 (patient-derived glioblastoma stem cells of mesenchymal subtype); assay: as above
[7] = system: E31 (patient-derived glioblastoma stem cells of proneural subtype); assay: as above
[8] = system: E21; assay: phenotypic distance (Euclidean, principal components) from DMSO controls (arbitrary units); higher = stronger morphological change
[9] = system: E28; assay: as above
[10] = system: E34; assay: as above
[11] = system: FT3469; assay: as above
[12] = system: E13; assay: as above
[13] = system: E57; assay: as above
[14] = system: E31; assay: as above
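For phenotypic distance (Euclidean, principal components) from DMSO controls in this document: cell Painting imaging in 384-well plates, CellProfiler features reduced to at least 20 principal components, Euclidean distance versus same-plate DMSO vehicle wells (0.1% v/v), median over six images per well.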
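For surviving fraction (nuclei count normalised to DMSO) in this document: nuclei counted by high-content imaging of Hoechst-stained cells in laminin-coated 384-well plates, relative to 0.1% DMSO vehicle wells, with staurosporine as cell-death control.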

COc1ccc([C@@H]2CC(=O)c3c(O)cc(O[C@@H]4O[C@H](CO[C@@H]5O[C@@H](C)[C@H](O)[C@@H](O)[C@H]5O)[C@@H](O)[C@H](O)[C@H]4O)cc3O2)cc1O [Hesperidin]
Conditions | phenotypic distance | surviving fraction
[1], 4.1 nM | – | 0.916
[1], 12.3 nM | – | 0.952
[1], 37 nM | – | 0.918
[1], 111.1 nM | – | 1.01
[1], 333.3 nM | – | 0.971
[1], 1000 nM | – | 1.02
[1], 3000 nM | – | 0.969
[2], 4.1 nM | – | 1.02
[2], 12.3 nM | – | 1.13
[2], 37 nM | – | 1.02
[2], 111.1 nM | – | 0.97
[2], 333.3 nM | – | 1.02
[2], 1000 nM | – | 1.13
[2], 3000 nM | – | 0.967
[3], 4.1 nM | – | 1.02
[3], 12.3 nM | – | 0.86
[3], 37 nM | – | 0.979
[3], 111.1 nM | – | 1.21
[3], 333.3 nM | – | 1.01
[3], 1000 nM | – | 0.93
[3], 3000 nM | – | 1.06
[4], 4.1 nM | – | 1.13
[4], 12.3 nM | – | 1.1
[4], 37 nM | – | 1.05
[4], 111.1 nM | – | 1.15
[4], 333.3 nM | – | 0.937
[4], 1000 nM | – | 1.01
[4], 3000 nM | – | 0.981
[5], 4.1 nM | – | 0.863
[5], 12.3 nM | – | 0.95
[5], 37 nM | – | 0.946
[5], 111.1 nM | – | 0.963
[5], 333.3 nM | – | 0.941
[5], 1000 nM | – | 1.04
[5], 3000 nM | – | 0.96
[6], 4.1 nM | – | 1
[6], 12.3 nM | – | 1.12
[6], 37 nM | – | 0.932
[6], 111.1 nM | – | 0.961
[6], 333.3 nM | – | 0.943
[6], 1000 nM | – | 0.925
[6], 3000 nM | – | 0.915
[7], 4.1 nM | – | 0.929
[7], 12.3 nM | – | 1.11
[7], 37 nM | – | 1.1
[7], 111.1 nM | – | 0.966
[7], 333.3 nM | – | 1.09
[7], 1000 nM | – | 1.04
[7], 3000 nM | – | 0.936
[8], 4.1 nM | 0.723 | –
[8], 12.3 nM | 1.01 | –
[8], 37 nM | 0.467 | –
[8], 111.1 nM | 0.825 | –
[8], 333.3 nM | 0.905 | –
[8], 1000 nM | 0.753 | –
[8], 3000 nM | 1.01 | –
[9], 4.1 nM | 0.47 | –
[9], 12.3 nM | 0.575 | –
[9], 37 nM | 0.783 | –
[9], 111.1 nM | 0.619 | –
[9], 333.3 nM | 0.437 | –
[9], 1000 nM | 0.666 | –
[9], 3000 nM | 1.36 | –
[10], 4.1 nM | 0.666 | –
[10], 12.3 nM | 0.79 | –
[10], 37 nM | 0.595 | –
[10], 111.1 nM | 1.02 | –
[10], 333.3 nM | 0.595 | –
[10], 1000 nM | 0.635 | –
[10], 3000 nM | 0.793 | –
[11], 4.1 nM | 0.821 | –
[11], 12.3 nM | 1.41 | –
[11], 37 nM | 0.766 | –
[11], 111.1 nM | 1.05 | –
[11], 333.3 nM | 0.567 | –
[11], 1000 nM | 0.989 | –
[11], 3000 nM | 0.744 | –
[12], 4.1 nM | 0.619 | –
[12], 12.3 nM | 0.532 | –
[12], 37 nM | 0.507 | –
[12], 111.1 nM | 0.462 | –
[12], 333.3 nM | 0.682 | –
[12], 1000 nM | 0.572 | –
[12], 3000 nM | 0.438 | –
[13], 4.1 nM | 0.43 | –
[13], 12.3 nM | 0.735 | –
[13], 37 nM | 0.539 | –
[13], 111.1 nM | 0.532 | –
[13], 333.3 nM | 0.511 | –
[13], 1000 nM | 0.762 | –
[13], 3000 nM | 0.602 | –
[14], 4.1 nM | 0.45 | –
[14], 12.3 nM | 0.684 | –
[14], 37 nM | 0.77 | –
[14], 111.1 nM | 0.32 | –
[14], 333.3 nM | 0.513 | –
[14], 1000 nM | 0.709 | –
[14], 3000 nM | 0.756 | –
